Assay results: patent publication US20250255857A1, “METHODS OF TREATING ANDROGEN RECEPTOR-INDEPENDENT PROSTATE CANCER” (FOGHORN THERAPEUTICS INC., priority 2022, published 2025)
Several values for one entry are separate records, joined by “and”; a condition that tells them apart may be missing. Equal values may be shown once. Read-outs that look alike come from different tables or passages of the source.

How the values were obtained:
[1] = test system: 22Rv1 prostate xenograft tumors; test: 22Rv1 prostate xenograft tumor model, tumor growth inhibition; assay type: in vivo, mice
Experimental: (§1) Procedure: The experimental details of the studies, including tumor model, mouse strain, cell number implanted, vehicle used, days of treatment, treatment details, and average tumor size at start of dosing are outlined in Table 1. All study mice were purchased from Beijing Anikeeper Biotech and Matrigel was utilized as a basement membrane for all xenograft models. All xenografts were engrafted subcutaneously in the right flank region. The vehicles and Compound 1 (3 mg/kg) were administered twice weekly (BIW) intraperitoneally and enzalutamide (30 mg/kg) was administered orally once daily (QD), when applicable. Tumor volumes and body weights were measured over the course of study, and doses were adjusted by body weight to achieve the proper dose in terms of mg/kg.

[2] = Plasma concentration of Compound 1 in DU145 PK/PD cohort; assay type: in vivo; settings: for concentration at 72 h: BALA/c nude (sic, BALB/c nude); for concentration at 72 h / concentration at 4 h: mouse, plasma, intraperitoneal; for concentration at 4 h: BALB/c nude
Experimental: (§2) Procedure: The experimental details of the studies, including tumor model, mouse strain, cell number implanted, vehicle used, days of treatment, treatment details, and average tumor size at start of dosing are outlined in Table 3. All study mice were obtained and the studies were conducted at Pharmaron. Each mouse was inoculated subcutaneously on the right flank with the single cell suspension of DU145 human prostate cancer tumor cells (5×10^6) in 0.1 mL with Matrigel (1:1) in MEM with 10% FBS for tumor development.
(§3) Based on tumor volume, mice were randomly assigned to respective groups using a computer-generated randomization procedure. The study groups and the number of animals per group are shown in Table 4A (efficacy study) and Table 4B (PKPD study).
(§4) Treatment for the PKPD cohort was initiated when the mean tumor volume reached 281 mm^3 on Day 14 post tumor cell inoculation. Animals were randomized into 5 groups: 1) Vehicle Control, 3 doses intraperitoneally (IP); 2) Compound 1 at 1 mg/kg, single dose IP; 3) Compound 1 at 15 mg/kg, single dose IP; 4) Compound 1 at 1 mg/kg, 3 doses IP; and 5) Compound 1 at 15 mg/kg, 3 doses IP.
(§5) In the case of an animal reaching a tumor size exceeding 2000 mm^3, the entire group was terminated. Plasma and tumor samples were collected at 4 hours and 72 hours post last dose for all groups. For the PKPD Cohort, the tumors were cut into 2 pieces: one for Western Blotting (WB) with BRD9 analysis, and one for RNAseq analysis. For the Efficacy Cohort, the tumors were analyzed for BRD9 levels by Western Blotting (WB).

[3] = test system: VCaP prostate xenograft tumors; test: VCaP prostate xenograft tumor model (Example 1), tumor growth inhibition; assay type: in vivo, mice
Experimental: as §1

BRD9 protein = biological target: T1, BRD9 protein (Homo sapiens, UniProt Q9H8M2); test: BRD9 levels in DU145 tumors by Western Blotting (PK/PD cohort); assay type: in vivo; settings: for BRD9 protein degradation (Western Blot): 72 h post last dose, P<0.05 vs. vehicle control
T1 construct: endogenous in cells; host or cells: DU145 human prostate cancer cells grown as subcutaneous xenograft tumors in mice
T1 sequence (Q9H8M2 1-597): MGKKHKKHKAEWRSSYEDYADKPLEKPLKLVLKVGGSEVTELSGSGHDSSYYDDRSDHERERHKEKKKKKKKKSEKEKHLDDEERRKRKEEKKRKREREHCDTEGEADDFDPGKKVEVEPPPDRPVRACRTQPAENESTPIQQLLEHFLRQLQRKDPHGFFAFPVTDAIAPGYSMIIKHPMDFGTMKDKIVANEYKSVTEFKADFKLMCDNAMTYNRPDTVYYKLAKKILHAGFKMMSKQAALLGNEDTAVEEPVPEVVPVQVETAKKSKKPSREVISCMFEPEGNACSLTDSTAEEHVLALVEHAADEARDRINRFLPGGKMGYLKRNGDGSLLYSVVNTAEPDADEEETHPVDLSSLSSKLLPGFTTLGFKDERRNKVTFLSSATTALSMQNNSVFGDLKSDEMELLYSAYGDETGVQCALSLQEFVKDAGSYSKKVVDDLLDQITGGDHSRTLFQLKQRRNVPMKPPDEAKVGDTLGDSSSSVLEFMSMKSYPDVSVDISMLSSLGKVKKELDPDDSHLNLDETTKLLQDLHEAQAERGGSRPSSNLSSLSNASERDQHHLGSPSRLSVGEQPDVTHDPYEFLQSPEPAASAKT
Experimental: as §2, §3, §4, §5

[4] = test system: C42B prostate xenograft tumors; test: C42B prostate xenograft tumor model, tumor growth inhibition; assay type: in vivo, mice
Experimental: as §1

[5] = test system: PC3 prostate xenograft tumors; test: PC3 prostate xenograft tumor model, tumor growth inhibition; assay type: in vivo, mice
Experimental: as §1

[6] = test system: DU145 human prostate cancer tumor cells; test: DU145 subcutaneous CDX model efficacy study (tumor growth inhibition, tolerability); assay type: in vivo, mice; settings: for tumor growth inhibition (TGI): DU145, P<0.001 vs. vehicle control; for Tumor Growth % on Day 49 / Tumor Size on Day 49 / T/C / TGI: DU145 subcutaneous model, 43 days; for T/C / TGI: Day 49
Experimental: as §2, §3
Treatment for the efficacy cohort was initiated when the mean tumor volume reached 145 mm^3 on Day 7 post tumor cell inoculation. Animals for the efficacy study were randomized into 3 groups: 1) Vehicle Control BIW IP (administered twice per week, intraperitoneally (IP); 2) Compound 1 at 3 mg/kg BIW IP; and 3) Compound 1 at 15 mg/kg BIW IP.
as §5

For `COc1cc(-c2cn(C)c(=O)c3cnc(N4CCC4)cc23)cc(OC)c1CN1CCC(CN2CCC3(CC2)CN(c2ccc4c(c2)C(=O)N(C2CCC(=O)NC2=O)C4)C3)CC1` (stereo not shown) [Compound 1, 3-(6-(7-((1-(4-(6-(azetidin-1-yl)-2-methyl-1-oxo-1,2-dihydro-2,7-naphthyridin-4-yl)-2,6-dimethoxybenzyl)piperidin-4-yl)methyl)-2,7-diazaspiro[3.5]nonan-2-yl)-1-oxoisoindolin-2-yl) piperidine-2,6-dione], the “TGI with Compound 1 3 mg/kg” value ([1]; 22RV1 CDX model, AR V7+, 3 mg/kg BIW IP) was 73.2%, the “tumor growth inhibition, in words” value ([1]; 22RV1 xenograft, Compound 1 3 mg/kg BIW IP, enzalutamide 30 mg/kg QD oral) was “modest tumor growth inhibition which was less than the TGI provided by enzalutamide treatment” and the TGI ([1]; 22Rv1 CDX model, Compound 1 3 mg/kg BIW IP, enzalutamide 30 mg/kg QD oral) was 73.2%. The “Plasma Concentration of Compound 1 (individual mice)” value (“Plasma Concentration” below) ([2]; 1 mg/kg BIW 3 doses IP, 4 hours post last dose, group 4) was 10.9 ng/mL and 14.4 ng/mL and 6.89 ng/mL, the “Plasma Concentration” value ([2]; 1 mg/kg BIW 3 doses IP, 72 hours post last dose, group 4) was 2.75 ng/mL and 1.85 ng/mL and the “difference in PK between a single dose or three doses” value ([2]; 1 mg/kg IP) was “No difference in PK”. For the same compound, the “Plasma Concentration” value ([2]; 1 mg/kg single dose IP, 4 hours post last dose, group 2) was 18.0 ng/mL and 9.37 ng/mL and 8.07 ng/mL, the “Plasma Concentration” value ([2]; 1 mg/kg single dose IP, 72 hours post last dose, group 2, BLOQ = below quantifiable limit of 1.05 ng/mL) was 1.59 ng/mL and BLOQ* and the “Plasma Concentration” value ([2]; 15 mg/kg BIW 3 doses IP, 4 hours post last dose, group 5) was 63.4 ng/mL and 71.3 ng/mL. For the same compound, the “Plasma Concentration” value ([2]; 15 mg/kg BIW 3 doses IP, 72 hours post last dose, group 5) was 10.5 ng/mL and 6.77 ng/mL, the “PK exposure, single dose vs three doses” value ([2]; 15 mg/kg IP) was 15 mg/kg (single dose) group had better PK exposure than the 15 mg/kg (three doses) group and the “Plasma Concentration” value ([2]; 15 mg/kg single dose IP, 4 hours post last dose, group 3) was 132 ng/mL and 92.3 ng/mL. For the same compound, the “Plasma Concentration” value ([2]; 15 mg/kg single dose IP, 72 hours post last dose, group 3) was 15.7 ng/mL and 50.2 ng/mL and 28.6 ng/mL, the concentration at 72 h ([2]; 1 mg/kg, 1 mg/kg BIW 3 doses IP, 72 hours post last dose, group 4, read-out: Plasma Concentration of Compound 1 (individual mice)) was 2.02 ng/mL and the concentration at 72 h ([2]; 1 mg/kg, 1 mg/kg BIW 3 doses IP, 72 hours post last dose, group 4, read-out: Plasma Concentration of Compound 1, Mean) was 2.21 ng/mL. The concentration at 72 h ([2]; 1 mg/kg, 1 mg/kg single dose IP, 72 hours post last dose, group 2, BLOQ = below quantifiable limit of 1.05 ng/mL, read-out: Plasma Concentration of Compound 1 (individual mice)) was 1.18 ng/mL, the concentration at 72 h ([2]; 1 mg/kg, 1 mg/kg single dose IP, 72 hours post last dose, group 2, read-out: Plasma Concentration of Compound 1, Mean) was 1.39 ng/mL and the concentration at 72 h ([2]; 15 mg/kg, 15 mg/kg BIW 3 doses IP, 72 hours post last dose, group 5, read-out: Plasma Concentration of Compound 1 (individual mice)) was 6.43 ng/mL. For the same compound, the concentration at 72 h ([2]; 15 mg/kg, 15 mg/kg BIW 3 doses IP, 72 hours post last dose, group 5, read-out: Plasma Concentration of Compound 1, Mean) was 7.9 ng/mL, the concentration at 72 h ([2]; 15 mg/kg, 15 mg/kg single dose IP, 72 hours post last dose, group 3, read-out: Plasma Concentration of Compound 1, Mean) was 31.5 ng/mL and the concentration at 4 h ([2]; 1 mg/kg, 1 mg/kg BIW 3 doses IP, 4 hours post last dose, group 4, read-out: Plasma Concentration of Compound 1, Mean) was 10.8 ng/mL. It also gave a concentration at 4 h ([2]; 1 mg/kg, 1 mg/kg single dose IP, 4 hours post last dose, group 2, read-out: Plasma Concentration of Compound 1, Mean) of 11.8 ng/mL, a concentration at 4 h ([2]; 15 mg/kg, 15 mg/kg BIW 3 doses IP, 4 hours post last dose, group 5, read-out: Plasma Concentration of Compound 1 (individual mice)) of 82.9 ng/mL and a concentration at 4 h ([2]; 15 mg/kg, 15 mg/kg BIW 3 doses IP, 4 hours post last dose, group 5, read-out: Plasma Concentration of Compound 1, Mean) of 72.5 ng/mL. The concentration at 4 h ([2]; 15 mg/kg, 15 mg/kg single dose IP, 4 hours post last dose, group 3, read-out: Plasma Concentration of Compound 1 (individual mice)) was 147 ng/mL, the concentration at 4 h ([2]; 15 mg/kg, 15 mg/kg single dose IP, 4 hours post last dose, group 3, read-out: Plasma Concentration of Compound 1, Mean) was 124 ng/mL and the “exposures in plasma, in words” value ([2]; DU145 PK/PD cohort, 1 and 15 mg/kg IP, 4 h and 72 h post last dose) was “time and dose dependent exposures”. For the same compound, the “exposure difference between a single dose and three doses” value ([2]; at each dose level (1 and 15 mg/kg IP)) was “no obvious exposure difference”, the “TGI with Compound 1 3 mg/kg” value ([3]; VCaP CDX model, AR V7+, 3 mg/kg BIW IP) was 57.8% and the “tumor growth inhibition, in words” value ([3]; VCaP xenograft, Compound 1 3 mg/kg BIW IP, enzalutamide 30 mg/kg QD oral) was “tumor growth inhibition that was greater than the inhibition provided by enzalutamide treatment”. For the same compound, the “BRD9 protein degradation (Western Blot)” value (BRD9 protein; 15 mg/kg single dose IP) was “statistically and significantly degrade BRD9 protein”, the “BRD9 protein degradation (Western Blot)” value (BRD9 protein; 15 mg/kg three doses IP) was “statistically and significantly degrade BRD9 protein” and the “correlation of plasma PK with in vivo BRD9 degradation” value (BRD9 protein; DU145 AR-negative prostate CDX model) was “positively corelates”. The “TGI with Compound 1 3 mg/kg” value ([4]; C42B CDX model, AR+, 3 mg/kg BIW IP) was 28.7%, the “tumor growth inhibition, in words” value ([4]; C42B xenograft, Compound 1 3 mg/kg BIW IP, enzalutamide 30 mg/kg QD oral) was “modest tumor growth inhibition which was less than the TGI provided by enzalutamide treatment” and the “TGI with Compound 1 3 mg/kg” value ([5]; PC3 CDX model, AR−, 3 mg/kg BIW IP) was 61.7%. The TGI ([5]; PC-3 CDX model, Compound 1 3 mg/kg BIW IP) was 61.7%, the “tumor growth inhibition (TGI)” value ([6]; 3 mg/kg BIW IP) was 42.2% and the “tumor growth inhibition (TGI)” value ([6]; 15 mg/kg BIW IP) was 55.3%. The “safety profile: tolerability” value ([6]; DU145 study, 1 mg/kg, 3 mg/kg and 15 mg/kg IP during the treatment period) was “tolerated Compound 1 well”, the clinical abnormalities ([6]; DU145 study, any of the animals treated) was “No obvious clinical abnormalities” and the “Tumor Growth % on Day 49” value ([6]; 3 mg/kg BIW IP) was 710 ± 19%. For the same compound, the “Tumor Size on Day 49” value ([6]; 3 mg/kg BIW IP) was 1029 ± 30 mm^3, the T/C ([6]; 3 mg/kg BIW IP) was 57.8% and the TGI ([6]; 3 mg/kg BIW IP) was 42.2%. The “Tumor Growth % on Day 49” value ([6]; 15 mg/kg BIW IP) was 549 ± 26%, the “Tumor Size on Day 49” value ([6]; 15 mg/kg BIW IP) was 793 ± 31 mm^3 and the T/C ([6]; 15 mg/kg BIW IP) was 44.7%. For the same compound, the TGI ([6]; 15 mg/kg BIW IP) was 55.3%.
